# Results as given in US20110152092A1, “Herbicidal compositions comprising flufenacet” (Bayer CropScience AG, priority 2009, published 2011).
# What was measured:
# [1] = tested on: ALOMY; assay: Greenhouse trial, PE application on sensitive and resistant biotypes (test method 8); type: in vivo, Alopecurus myosuroides; settings: g of AS/ha: (A) 90, (B) 1200, (C) 90, mixture 90 + 1200 + 90, iodosulfuron 10
# Description: (§1) In the standard design of the test, seeds of various broad-leaved weed and weed grass biotypes (origins) were sown in a 8-13 cm diameter pot filled with natural soil of a standard field soil (loamy silt; non-sterile) and covered with a covering soil layer of about 1 cm. The pots were then cultivated in a greenhouse (12-16 h of light, temperature day 20-22° C., night 15-18° C.) until the time of application. The pots were treated on a laboratory track sprayer with spray liquors comprising the compositions according to the invention, mixtures of the prior art or components used individually. Application of the active compounds or active compound combinations formulated as WG, WP, EC or otherwise was carried out at the appropriate growth stages of the plants. The application rate for the spray application was 100-600 l of water/ha. After the treatment, the plants were returned to the greenhouses.
# (§2) About 3 weeks after the application, the soil action or/and foliar action was assessed visually according to a scale of 0-100% in comparison to an untreated comparative group: 0%=no noticeable effect compared to the untreated comparative group; 100%=full effect compared to the untreated comparative group.
# (§3) (notes: the term “seeds” also includes vegetative propagation forms such as, for example, rhizome pieces; abbreviations used: h light=hours of illumination, g of AS/ha=gram of active substance per hectare, l/ha=liter per hectare, S=sensitive, R=resistant) • 1. Pre-emergence action against weeds: seeds of various broad-leaved weed and weed grass biotypes (origins) were sown in a 8-13 cm diameter pot filled with natural soil of a standard field soil (loamy silt; non-sterile) and covered with a covering soil layer of about 1 cm. The pots were then cultivated in a greenhouse (12-16 h of light, temperature day 20-22° C., night 15-18° C.) until the time of application. The pots were treated at the BBCH stage 00-10 of the seeds/plants on a laboratory track sprayer with spray liquors comprising the compositions according to the invention, mixtures or components used individually, as WG, WP, EC or other formulations. The application rate for the spray application was 100-600 l of water/ha. After the treatment, the plants were returned to the greenhouses and, when required, treated with fertilizer and watered. • 2. Post-emergence action against weeds: seeds of various broad-leaved weed and weed grass biotypes (origins) were sown in a 8-13 cm diameter pot filled with natural soil of a standard field soil (loamy silt; non-sterile) and covered with a covering soil layer of about 1 cm. The pots were then cultivated in a greenhouse (12-16 h of light, temperature day 20-22° C., night 15-18° C.) until the time of application. The pots were treated at various BBCH stages between 11-25 of the seeds/plants, i.e. generally between two to three weeks after the start of the cultivation, on a laboratory track sprayer with spray liquors comprising the compositions according to the invention, mixtures or components used individually, as WG, WP, EC or other formulations. The application rate for the spray application was 100-600 l of water/ha. After the treatment, the plants were returned to the greenhouses and, when required, treated with fertilizer and watered. • 3. Selective pre-emergence action: seeds of various crop species (origins) were sown in a 8-13 cm diameter pot filled with natural soil of a standard field soil (loamy silt; non-sterile) and covered with a covering soil layer of about 1 cm. The pots were then cultivated in a greenhouse (12-16 h of light, temperature day 20-22° C., night 15-18° C.) until the time of application. The pots were treated at the BBCH stage 00-10 of the seeds/plants on a laboratory track sprayer with spray liquors comprising the compositions according to the invention, mixtures or components used individually, as WG, WP, EC or other formulations. The application rate for the spray application was 100-600 l of water/ha. […]
# [2] = tested on: HORVS; assay: Greenhouse trial, pre-sowing application 7 days prior to sowing (test method 5); type: in vivo, Hordeum vulgare, summer barley; settings: g of AS/ha: (A) 90, (B) 1200, (C) 90, mixture 90 + 1200
# Description: as §1
# as §2, with “group. […]” for “group.”
# [3] = tested on: APESV; assay: Greenhouse trial, PO application, post-emergence action against weeds (test method 2); type: in vivo, Apera Spica-venti; settings: g of AS/ha: (A) 120, (B) 1200, (C) 120, mixture 120 + 1200 + 120
# Description: as §1
# as §2, with “group. […]” for “group.”
# [4] = tested on: AVEFA; assay: Greenhouse trial, pre-sowing application 7 days prior to sowing (test method 5); type: in vivo, Avena fatua; settings: g of AS/ha: (A) 90, (B) 1200, (C) 90, mixture 90 + 1200
# Description: as §1
# as §2, with “group. […]” for “group.”
# [5] = tested on: APESV; assay: Greenhouse trial, PE application at different sowing depths (test method 9); type: in vivo, Apera Spica-venti; settings: g of AS/ha: (A) 120, (B) 1200, (C) 90, mixture 90 + 1200 + 90
# Description: as §1, §2
# (notes: the term “seeds” also includes vegetative propagation forms such as, for example, rhizome pieces; abbreviations used: h light=hours of illumination, g of AS/ha=gram of active substance per hectare, l/ha=liter per hectare, S=sensitive, R=resistant) • 1. Pre-emergence action against weeds: seeds of various broad-leaved weed and weed grass biotypes (origins) were sown in a 8-13 cm diameter pot filled with natural soil of a standard field soil (loamy silt; non-sterile) and covered with a covering soil layer of about 1 cm. The pots were then cultivated in a greenhouse (12-16 h of light, temperature day 20-22° C., night 15-18° C.) until the time of application. […]
# [6] = tested on: STEME; assay: Greenhouse trial, activity with different soil types; type: in vivo, Stellaria media; settings: g of AS/ha: (A) 120, (B) 1200, (C) 90, mixture 120 + 1200 + 90
# Description: as §1, §2, §3
# [7] = tested on: STEME; assay: Greenhouse trial, PO application, post-emergence action against weeds (test method 2); type: in vivo, Stellaria media; settings: g of AS/ha: (A) 120, (B) 1200, (C) 120, mixture 120 + 1200 + 120
# Description: as §1
# as §2, with “group. […]” for “group.”
# [8] = tested on: AVEFA; assay: Greenhouse trial, PE application with different irrigation variations (test method 6); type: in vivo, Avena fatua; settings: g of AS/ha: (A) 120, (B) 1200, (C) 90, mixture 120 + 1200 + 90
# Description: as §1
# as §2, with “group. […]” for “group.”
# [9] = tested on: AVEFA; assay: Greenhouse trial, PE application, pre-emergence action against weeds (test method 1); type: in vivo, Avena fatua; settings: g of AS/ha: (A) 90, (B) 1200, (C) 90, mixture 90 + 1200
# Description: as §1
# as §2, with “group. […]” for “group.”
# [10] = tested on: HORVS; assay: Greenhouse trial, PE application, selective pre-emergence action on crop (test method 3); type: in vivo, Hordeum vulgare, summer barley; settings: g of AS/ha: (A) 90, (B) 1200, (C) 90, mixture 90 + 1200
# Description: as §1
# as §2, with “group. […]” for “group.”
# [11] = tested on: TRZAW; assay: Greenhouse trial, PE application at different sowing depths (test method 9); type: in vivo, Triticum aestivum, winter wheat; settings: g of AS/ha: (A) 120, (B) 1200, (C) 90, mixture 90 + 1200 + 90
# Description: as §1, §2
# (notes: the term “seeds” also includes vegetative propagation forms such as, for example, rhizome pieces; abbreviations used: h light=hours of illumination, g of AS/ha=gram of active substance per hectare, l/ha=liter per hectare, S=sensitive, R=resistant) • 1. Pre-emergence action against weeds: seeds of various broad-leaved weed and weed grass biotypes (origins) were sown in a 8-13 cm diameter pot filled with natural soil of a standard field soil (loamy silt; non-sterile) and covered with a covering soil layer of about 1 cm. The pots were then cultivated in a greenhouse (12-16 h of light, temperature day 20-22° C., night 15-18° C.) until the time of application. The pots were treated at the BBCH stage 00-10 of the seeds/plants on a laboratory track sprayer with spray liquors comprising the compositions according to the invention, mixtures or components used individually, as WG, WP, EC or other formulations. The application rate for the spray application was 100-600 l of water/ha. After the treatment, the plants were returned to the greenhouses and, when required, treated with fertilizer and watered. • 2. Post-emergence action against weeds: seeds of various broad-leaved weed and weed grass biotypes (origins) were sown in a 8-13 cm diameter pot filled with natural soil of a standard field soil (loamy silt; non-sterile) and covered with a covering soil layer of about 1 cm. The pots were then cultivated in a greenhouse (12-16 h of light, temperature day 20-22° C., night 15-18° C.) until the time of application. […]
smiles,measurement,setting,value
"CCC(CC)Nc1c([N+](=O)[O-])cc(C)c(C)c1[N+](=O)[O-] [(B) pendimethalin, N-(1-ethylpropyl)-3,4-dimethyl-2,6-dinitrobenzenamine]","activity ALOMY resistant (visual, scale 0-100%)",[1]; resistant biotype,40%
same,"activity ALOMY sensitive (visual, scale 0-100%)",[1]; sensitive biotype,30%
same,"activity on crop plant HORVS (visual, scale 0-100%)",[2],30%
same,"activity APESV (visual, scale 0-100%)",[3],0%
same,"activity AVEFA (visual, scale 0-100%)",[4],70%
same,"activity APESV 5 mm (visual, scale 0-100%)",[5]; sowing depth 5 mm,0%
same,"activity APESV 20 mm (visual, scale 0-100%)",[5]; sowing depth 20 mm,0%
same,"activity STEME IU soil (visual, scale 0-100%)",[6]; IU soil,85%
same,"Difference of the soil types, STEME",[6]; IU/EC73 soil versus IU soil,−30%
same,"activity STEME IU/EC73 soil (visual, scale 0-100%)",[6]; IU/EC73 soil,55%
same,"activity STEME (visual, scale 0-100%)",[7],30%
same,"activity AVEFA (visual, scale 0-100%)",[8]; irrigation from above,80%
same,"activity AVEFA (visual, scale 0-100%)",[8]; irrigation from below,40%
same,"activity AVEFA (visual, scale 0-100%)",[9],40%
same,"activity on crop plant HORVS (visual, scale 0-100%)",[10],50%
same,"activity on crop plant TRZAW 5 mm (visual, scale 0-100%)",[11]; sowing depth 5 mm,45%
same,"activity on crop plant TRZAW 20 mm (visual, scale 0-100%)",[11]; sowing depth 20 mm,10%
